ChEMBL document CHEMBL4311942, “Design of Trp-Rich Dodecapeptides with Broad-Spectrum Antimicrobial Potency and Membrane-Disruptive Mechanism” (J Med Chem, 2019)
Values after ≈ are worked out from the molar mass of the structure shown. Active and inactive are the calls of the source. No cut-off for these calls is given here. Where a SMILES comes first, the peptide text is derived from it.

What was measured:
Staphylococcus aureus [1] = experiment: Antibacterial activity against Staphylococcus aureus ATCC 25923 incubated for 18 to 24 hrs by broth microdilution method; assay type: functional
Salmonella typhimurium = experiment: Antibacterial activity against Salmonella enterica serovar typhimurium C77-31 incubated for 18 to 24 hrs by broth microdilution method; assay type: functional, Salmonella enterica subsp. enterica serovar Typhimurium
Escherichia coli [2] = experiment: Antibacterial activity against Escherichia coli UB1005 incubated for 18 to 24 hrs by broth microdilution method; assay type: functional
Pseudomonas aeruginosa [3] = experiment: Antibacterial activity against Pseudomonas aeruginosa 25349 clinical isolate incubated for 18 to 24 hrs by broth microdilution method; assay type: functional
Escherichia coli [4] = experiment: Bactericidal activity against Escherichia coli ATCC 25922 at 2 times MIC after 120 mins by time kill assay relative to control; assay type: functional
Escherichia coli [5] = experiment: Bactericidal activity against Escherichia coli ATCC 25922 at 4 times MIC after 60 mins by time kill assay relative to control; assay type: functional
Escherichia coli [6] = experiment: Bactericidal activity against Escherichia coli ATCC 25922 at 1 times MIC after 120 mins by time kill assay; assay type: functional, organism-based
Staphylococcus aureus [7] = experiment: Bactericidal activity against Staphylococcus aureus ATCC 29213 at 2 times MIC after 60 mins by time kill assay; assay type: functional, organism-based
Staphylococcus aureus [8] = experiment: Bactericidal activity against Staphylococcus aureus ATCC 29213 at 4 times MIC after 30 mins by time kill assay; assay type: functional, organism-based
Escherichia coli [9] = experiment: Antibacterial activity against Escherichia coli ATCC 25922 using preheated compound at 100 degreeC for 1 hr by broth microdilution method; assay type: functional; conditions: ATCC 25922, 1 h
Escherichia coli [10] = experiment: Antibacterial activity against Escherichia coli ATCC 25922 in presence of NaCl by broth microdilution method; assay type: functional
Escherichia coli [11] = experiment: Antibacterial activity against Escherichia coli ATCC 25922 in presence of MgCl2 by broth microdilution method; assay type: functional
Escherichia coli [12] = experiment: Antibacterial activity against Escherichia coli ATCC 25922 in presence of CaCl2 by broth microdilution method; assay type: functional
Escherichia coli [13] = experiment: Antibacterial activity against Escherichia coli ATCC 25922 in presence of FeCl3 by broth microdilution method; assay type: functional
Escherichia coli [14] = experiment: Antibacterial activity against Escherichia coli ATCC 25922 incubated for 2 hrs in presence of sodium phosphate buffer at pH 4 by broth microdilution method; assay type: functional; conditions: ATCC 25922, 2 h
Escherichia coli [15] = experiment: Antibacterial activity against Escherichia coli ATCC 25922 incubated for 2 hrs in presence of sodium phosphate buffer at pH 12 by broth microdilution method; assay type: functional; conditions: ATCC 25922, 2 h
Escherichia coli [16] = experiment: Antibacterial activity against Escherichia coli ATCC 25922 in presence of H202 by broth microdilution method; assay type: functional
Staphylococcus aureus [17] = experiment: Antibacterial activity against Staphylococcus aureus ATCC 29213 in presence of NaCl by broth microdilution method; assay type: functional
Staphylococcus aureus [18] = experiment: Antibacterial activity against Staphylococcus aureus ATCC 29213 in presence of NH4Cl by broth microdilution method; assay type: functional
Staphylococcus aureus [19] = experiment: Antibacterial activity against Staphylococcus aureus ATCC 29213 in presence of CaCl2 by broth microdilution method; assay type: functional
Staphylococcus aureus [20] = experiment: Antibacterial activity against Staphylococcus aureus ATCC 29213 in presence of FeCl3 by broth microdilution method; assay type: functional
Staphylococcus aureus [21] = experiment: Antibacterial activity against Staphylococcus aureus ATCC 29213 in presence of 25% serum by broth microdilution method; assay type: functional
Staphylococcus aureus [22] = experiment: Antibacterial activity against Staphylococcus aureus ATCC 29213 incubated for 2 hrs in presence of sodium phosphate buffer at pH 12 by broth microdilution method; assay type: functional; conditions: ATCC 29213, 2 h
Staphylococcus aureus [23] = experiment: Antibacterial activity against Staphylococcus aureus ATCC 29213 in presence of NaBH4 by broth microdilution method; assay type: functional
Escherichia coli [24] = experiment: Induction of outer membrane permeabilization in Escherichia coli UB1005 assessed as increase in NPN uptake by spectrofluorophotometric assay; assay type: organism-based
Escherichia coli [25] = experiment: Induction of cytoplasmic membrane depolarization in Escherichia coli UB1005 by DiSC3-5 dye based fluorescence method; assay type: organism-based
Escherichia coli [26] = experiment: Inhibition of swimming motility of Escherichia coli ATCC 25922 after 16 hrs; assay type: functional, organism-based
[27] = Drug localization in Staphylococcus aureus ATCC 29213 at 1 to 2 times MIC incubated for 1 hr using FITC-labelled peptides by propidium iodide-staining based regular fluorescent microscopy; assay type: ADME
[28] = Drug localization in Escherichia coli ATCC 25922 at 2 times MIC incubated for 1 hr using FITC-labelled peptides by propidium iodide-staining based super resolution fluorescent microscopy; assay type: ADME
Escherichia coli [29] = experiment: Antibacterial activity against Escherichia coli ATCC 25922 incubated for 18 to 24 hrs using FITC-labelled peptide by broth microdilution method; assay type: functional, organism-based
Staphylococcus aureus [30] = experiment: Induction of cell membrane disruption in Staphylococcus aureus ATCC 29213 assessed as propidium iodide-positive cells at 2 times MIC after 30 mins by flow cytometric analysis (reference value: 0.3%)
Escherichia coli [31] = experiment: Induction of cell membrane disruption in Escherichia coli ATCC 25922 assessed as appearance of membrane atrophy at 1 times MIC after 60 mins by field emission scanning electron microscopy; assay type: organism-based
Escherichia coli [32] = experiment: Disruption of Escherichia coli ATCC 25922 cell membrane assessed as induction of arachnoid damage at 2 times MIC after 60 mins by field emission scanning electron microscopy; assay type: organism-based
Staphylococcus aureus [33] = experiment: Induction of cell membrane disruption in Staphylococcus aureus ATCC 29213 assessed as apperance of rough membrane with discrete blebs at 1 times MIC after 60 mins by field emission scanning electron microscopy; assay type: organism-based
Escherichia coli [34] = experiment: Induction of cell membrane disruption in Escherichia coli ATCC 25922 assessed as leakage of cellular contents at 1 to 2 times MIC after 60 mins by transmission electron microscopy; assay type: organism-based
Escherichia coli [35] = experiment: Induction of cell membrane disruption in Escherichia coli ATCC 25922 assessed as appearance of cytoplasmic clear zones at 1 times MIC after 60 mins by transmission electron microscopy; assay type: organism-based
Staphylococcus aureus [36] = experiment: Induction of cell membrane disruption in Staphylococcus aureus ATCC 29213 assessed as collapsed membrane at 1 to 2 times MIC after 60 mins by transmission electron microscopy; assay type: organism-based
Staphylococcus aureus [37] = experiment: Induction of cell membrane disruption in Staphylococcus aureus ATCC 29213 assessed as leakage of cellular content at 1 to 2 times MIC after 60 mins by transmission electron microscopy; assay type: organism-based
Pseudomonas aeruginosa [38] = experiment: Antibacterial activity against Pseudomonas aeruginosa PAO1 at sub-MIC treated over 35 serial passages by resistant development assay; assay type: functional, organism-based

Compound: CC(C)C[C@H](NC(=O)[C@H](CCCNC(=N)N)NC(=O)[C@H](Cc1c[nH]c2ccccc12)NC(=O)[C@H](CCCNC(=N)N)NC(=O)[C@@H](NC(=O)[C@H](CCCCN)NC(=O)[C@H](Cc1c[nH]c2ccccc12)NC(=O)[C@H](CCCNC(=N)N)NC(=O)[C@H](CC(C)C)NC(=O)[C@H](CCCNC(=N)N)NC(=O)[C@@H](N)Cc1c[nH]c2ccccc12)[C@@H](C)O)C(=O)N[C@@H](CCCCN)C(N)=O (H-WRLRWKTRWRLK-NH2)
- MIC (Staphylococcus aureus [1]): 2 µM (≈ 3.57 µg/mL)
- MIC (Salmonella typhimurium): 2 µM (≈ 3.57 µg/mL)
- MIC (Escherichia coli [2]): 2 µM (≈ 3.57 µg/mL)
- MIC (Pseudomonas aeruginosa [3]): 8 µM (≈ 14.3 µg/mL)
- Activity (Escherichia coli [4]): 100%
- Activity (Escherichia coli [5]): 100%
- Activity (Escherichia coli [6]): inactive
- Activity (Staphylococcus aureus [7]): Active
- Activity (Staphylococcus aureus [8]): Active
- MIC (Escherichia coli [9]): 2 µM (≈ 3.57 µg/mL)
- MIC (Escherichia coli [10]): 4 µM
- MIC (Escherichia coli [11]): 2 µM
- MIC (Escherichia coli [12]): 2 µM
- MIC (Escherichia coli [13]): 4 µM
- MIC (Escherichia coli [14]): 2 µM
- MIC (Escherichia coli [15]): 2 µM
- MIC (Escherichia coli [16]): 2 µM
- MIC (Staphylococcus aureus [17]): 8 µM
- MIC (Staphylococcus aureus [18]): 4 µM
- MIC (Staphylococcus aureus [19]): 4 µM
- MIC (Staphylococcus aureus [20]): 4 µM
- MIC (Staphylococcus aureus [21]): 8 µM
- MIC (Staphylococcus aureus [22]): 8 µM
- MIC (Staphylococcus aureus [23]): 4 µM
- Activity (Escherichia coli [24]): Dose-dependent effect
- Activity (Escherichia coli [25]): Dose-dependent effect
- inhibition (Escherichia coli [26]): Dose-dependent effect
- Drug uptake [27]: Active
- Drug uptake [28]: Active
- Activity (Escherichia coli [29]): Active
- Activity (Staphylococcus aureus [30]): 97.7%
- Activity (Escherichia coli [31]): Active
- Activity (Escherichia coli [32]): Active
- Activity (Staphylococcus aureus [33]): Active
- Activity (Escherichia coli [34]): Active
- Activity (Escherichia coli [35]): Active
- Activity (Staphylococcus aureus [36]): Active
- Activity (Staphylococcus aureus [37]): Active
- Activity (Pseudomonas aeruginosa [38]): Active
